A short description of this test: Inhibition of yeast alpha-glucosidase by colorimetric method. Details: species or system Saccharomyces cerevisiae.

Our source for the IC50 values is ChEMBL document CHEMBL1144054, “Two new bromophenols from the red alga odonthalia corymbifera” (J Nat Prod, 1999).

Broadly, the IC50 is the concentration that gives 50% inhibition. Low readings indicate inhibition by little substance, high ones a need for much substance. Molecule `OCc1cc(Br)c(O)c(Oc2c(CO)cc(Br)c(O)c2O)c1Br` came in with an IC50 of 25 µM.
`Oc1cc(COCc2cc(O)c(O)c(Br)c2Br)c(Br)c(Br)c1O`: the IC50 was 0.098 µM.
In turn, `OCc1cc(O)c(O)c(Br)c1Br` [LANOSOL] had an IC50 of 89 µM.
